Assay results: patent US20240343706A1, “PIPERIDINE-2,6-DIONE DERIVATIVES WHICH BIND TO CEREBLON, AND METHODS OF USE THEREOF” (Captor Therapeutics S.A., priority 2019, published 2024)

Legend:
IKZF1 = IKZF1 degradation assay, H929 cell line (western blot densitometry); type: cell-based; conditions: H929 cells; for % of protein reduction based on densitometry values, IKZF 1 (24 H): summary Table 10, 20 μM (some compounds 10 and 20 μM)
Text: (§1) After primary and secondary Ab staining, the membranes were washed and signals developed. The densitometry analysis was implemented to obtain the numeric values used later in the protein level evaluation process.

IKZF3 = IKZF3 degradation assay, H929 cell line (western blot densitometry); type: cell-based; conditions: H929 cells
[1] = target: CRBN-DDB1 protein complex (Homo sapiens, UniProt Q96SW2); experiment: Fluorescence polarization (FP) assay, displacement of Cy5-labelled thalidomide; conditions: 25 nM CRBN-DDB1, 5 nM Cy5-labelled thalidomide, read-out: CRBN binding Ki
Protocol: CRBN-DDB1 protein complex was mixed with Cy5-labelled thalidomide and a compound to be tested (the “test compound”). […] The test solution was added to a 384-well assay plate.
The plate was spun-down (1 min, 1000 rpm, 22° C.) and then shaken using a VibroTurbulator for 10 min at room temperature (20-25° C.), with the frequency set to level 3. The assay plate with protein and the tracer was incubated for 60 min at room temperature (20-25° C.) prior to read-out with a plate reader.
The FP experiment was carried out with various concentrations of the test compounds in order to measure Ki values.

SALL4 = SALL4 degradation assay, Kelly cell line (western blot densitometry); type: cell-based; conditions: Kelly cells; for % of protein reduction based on densitometry values, SALL4 (24 H): summary Table 10, 20 μM (some compounds 10 and 20 μM); for % of SALL4 protein reduction, based on densitometry values: 24 h
Text: as §1

CK1α = CK1α degradation assay, Kelly cell line (western blot densitometry); type: cell-based; conditions: Kelly cells; for % of protein reduction based on densitometry values, CK1α (24 H): summary Table 10, 20 μM (some compounds 10 and 20 μM); for % of CK1α protein reduction, based on densitometry values: 24 h
Text: as §1

Sequence of CRBN-DDB1 protein complex (Q96SW2 whole entry): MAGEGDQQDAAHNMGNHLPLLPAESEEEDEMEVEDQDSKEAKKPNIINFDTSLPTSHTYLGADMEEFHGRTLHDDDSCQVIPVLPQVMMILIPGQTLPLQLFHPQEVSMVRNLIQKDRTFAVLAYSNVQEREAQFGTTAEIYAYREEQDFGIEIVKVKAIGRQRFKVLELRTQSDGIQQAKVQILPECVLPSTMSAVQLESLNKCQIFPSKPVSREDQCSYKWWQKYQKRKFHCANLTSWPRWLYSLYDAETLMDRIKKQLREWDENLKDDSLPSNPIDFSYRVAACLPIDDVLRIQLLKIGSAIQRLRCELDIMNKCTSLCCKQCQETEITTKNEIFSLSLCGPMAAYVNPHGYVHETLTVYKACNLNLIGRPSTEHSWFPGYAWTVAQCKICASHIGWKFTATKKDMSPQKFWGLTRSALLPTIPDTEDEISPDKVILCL
Sequence of CRBN-DDB1 protein complex (Q16531 whole entry partner): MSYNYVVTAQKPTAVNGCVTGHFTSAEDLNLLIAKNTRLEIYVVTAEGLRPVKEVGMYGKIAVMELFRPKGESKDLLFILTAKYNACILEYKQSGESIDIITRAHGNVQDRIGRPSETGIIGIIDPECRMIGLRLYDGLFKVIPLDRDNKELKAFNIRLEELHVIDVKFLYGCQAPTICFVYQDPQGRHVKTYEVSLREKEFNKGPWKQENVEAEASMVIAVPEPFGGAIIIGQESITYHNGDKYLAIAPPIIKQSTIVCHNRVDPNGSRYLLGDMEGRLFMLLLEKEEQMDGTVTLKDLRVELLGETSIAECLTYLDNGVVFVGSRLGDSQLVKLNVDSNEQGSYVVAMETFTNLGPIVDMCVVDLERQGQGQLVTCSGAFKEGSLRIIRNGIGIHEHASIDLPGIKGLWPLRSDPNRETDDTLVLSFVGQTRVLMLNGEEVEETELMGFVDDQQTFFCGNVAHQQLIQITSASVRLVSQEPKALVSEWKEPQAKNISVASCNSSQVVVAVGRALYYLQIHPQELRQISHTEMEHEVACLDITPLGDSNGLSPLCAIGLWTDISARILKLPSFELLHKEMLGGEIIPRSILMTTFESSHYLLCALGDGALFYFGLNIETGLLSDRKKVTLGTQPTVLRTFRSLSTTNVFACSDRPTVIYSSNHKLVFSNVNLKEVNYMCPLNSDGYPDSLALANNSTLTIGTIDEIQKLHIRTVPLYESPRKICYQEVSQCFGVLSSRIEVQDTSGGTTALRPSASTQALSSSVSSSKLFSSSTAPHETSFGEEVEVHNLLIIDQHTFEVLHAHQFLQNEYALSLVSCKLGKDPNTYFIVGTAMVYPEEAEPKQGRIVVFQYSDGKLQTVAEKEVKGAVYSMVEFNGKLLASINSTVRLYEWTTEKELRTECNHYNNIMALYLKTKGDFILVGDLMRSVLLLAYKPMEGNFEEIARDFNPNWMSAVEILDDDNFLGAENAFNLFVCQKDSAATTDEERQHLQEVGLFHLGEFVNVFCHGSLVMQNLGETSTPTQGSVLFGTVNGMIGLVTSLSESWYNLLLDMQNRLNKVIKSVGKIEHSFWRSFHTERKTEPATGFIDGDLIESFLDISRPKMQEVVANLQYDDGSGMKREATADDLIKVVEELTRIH

Cc1sc2c(c1C)C(c1ccc(Cl)cc1)=N[C@@H](CC(=O)Nc1ccc(OCCOCCOCCOCCNc3cccc4c3C(=O)N(C3CCC(=O)NC3=O)C4=O)cc1)c1nnc(C)n1-2 (stereo partly shown) [ARV-825, reference compound]
% of IKZF1 α protein reduction based on densitometry values (IKZF1; 0.1 μM, 6 h): >25% (>25% for 26-74% of IKZF1 protein reduction)
% of IKZF1 α protein reduction based on densitometry values (IKZF1; 1 μM, 6 h): >25% (>25% for 26-74% of IKZF1 protein reduction)
% of IKZF1 α protein reduction based on densitometry values (IKZF1; 10 μM, 6 h): >25% (>25% for 26-74% of IKZF1 protein reduction)
IKZF1 degradation (IKZF1; 6 h, 0.1-10 μM): ~50%
% of IKZF3 protein reduction based on densitometry values, IKZF3 Band I (IKZF3; 0.1 μM, 6 h): >25% (>25% for 26-74% of IKZF3 protein reduction)
% of IKZF3 protein reduction based on densitometry values, IKZF3 Band II (IKZF3; 0.1 μM, 6 h): >25% (>25% for 26-74% of IKZF3 protein reduction)
% of IKZF3 protein reduction based on densitometry values, IKZF3 Band I (IKZF3; 1 μM, 6 h): >25% (>25% for 26-74% of IKZF3 protein reduction)
% of IKZF3 protein reduction based on densitometry values, IKZF3 Band II (IKZF3; 1 μM, 6 h): >25% (>25% for 26-74% of IKZF3 protein reduction)
% of IKZF3 protein reduction based on densitometry values, IKZF3 Band I (IKZF3; 10 μM, 6 h): >25% (>25% for 26-74% of IKZF3 protein reduction)
% of IKZF3 protein reduction based on densitometry values, IKZF3 Band II (IKZF3; 10 μM, 6 h): >25% (>25% for 26-74% of IKZF3 protein reduction)
IKZF3 degradation (IKZF3; 6 h, 0.1-10 μM): ~60%

O=C1CCC(NC(=O)c2cccc3c2NC(=O)C3)C(=O)N1 (stereo not shown) [Compound 1, N-(2,6-dioxopiperidin-3-yl)-2-oxoindoline-7-carboxamide]
Ki [1]: 10 to 50 µM
% of protein reduction based on densitometry values, SALL4 (24 H) (SALL4): ≤25% (≤25% for 0-25% of SALL4 protein reduction)
% of protein reduction based on densitometry values, CK1α (24 H) (CK1α): ≤25% (≤25% for 0-25% of CK1a protein reduction)
% of protein reduction based on densitometry values, IKZF 1 (24 H) (IKZF1): ≤25% (≤25% for 0-25% of IKZF1 protein reduction)

O=C1CCC(NC(=O)c2cccc3[nH]c(=O)[nH]c23)C(=O)N1 (stereo not shown) [Compound 3, N-(2,6-dioxopiperidin-3-yl)-2-oxo-2,3-dihydro-1H-benzo[d]imidazole-4-carboxamide]
% of protein reduction based on densitometry values, SALL4 (24 H) (SALL4): ≤25% (≤25% for 0-25% of SALL4 protein reduction)
% of protein reduction based on densitometry values, CK1α (24 H) (CK1α): ≤25% (≤25% for 0-25% of CK1a protein reduction)
% of protein reduction based on densitometry values, IKZF 1 (24 H) (IKZF1): ≤25% (≤25% for 0-25% of IKZF1 protein reduction)

Cn1cnc2c(C(=O)NC3CCC(=O)NC3=O)cccc21 (stereo not shown) [Compound 4, N-(2,6-dioxopiperidin-3-yl)-1-methyl-1H-benzo[d]imidazole-4-carboxamide]
Ki [1]: 1 to 10 µM
% of protein reduction based on densitometry values, SALL4 (24 H) (SALL4): ≤25% (≤25% for 0-25% of SALL4 protein reduction)
% of protein reduction based on densitometry values, CK1α (24 H) (CK1α): ≤25% (≤25% for 0-25% of CK1a protein reduction)
% of protein reduction based on densitometry values, IKZF 1 (24 H) (IKZF1): ≤25% (≤25% for 0-25% of IKZF1 protein reduction)

Cn1cnc2cccc(C(=O)NC3CCC(=O)NC3=O)c21 (stereo not shown) [Compound 5, N-(2,6-dioxopiperidin-3-yl)-1-methyl-1H-benzo[d]imidazole-7-carboxamide]
% of protein reduction based on densitometry values, SALL4 (24 H) (SALL4): ≤25% (≤25% for 0-25% of SALL4 protein reduction)
% of protein reduction based on densitometry values, CK1α (24 H) (CK1α): ≤25% (≤25% for 0-25% of CK1a protein reduction)
% of protein reduction based on densitometry values, IKZF 1 (24 H) (IKZF1): ≤25% (≤25% for 0-25% of IKZF1 protein reduction)

CCCCCC(=O)Nc1cc(C(=O)NC2CCC(=O)NC2=O)c2c(c1)ncn2C (stereo not shown) [Compound 6, N-(2,6-dioxopiperidin-3-yl)-5-hexanamido-1-methyl-1H-benzo[d]imidazole-7-carboxamide]
% of protein reduction based on densitometry values, SALL4 (24 H) (SALL4): ≤25% (≤25% for 0-25% of SALL4 protein reduction)
% of protein reduction based on densitometry values, CK1α (24 H) (CK1α): ≤25% (≤25% for 0-25% of CK1a protein reduction)
% of protein reduction based on densitometry values, IKZF 1 (24 H) (IKZF1): ≤25% (≤25% for 0-25% of IKZF1 protein reduction)

O=C1CCC(NC(=O)c2c(F)ccc3[nH]cnc23)C(=O)N1 (stereo not shown) [Compound 7, N-(2,6-dioxopiperidin-3-yl)-5-fluoro-1H-benzo[d]imidazole-4-carboxamide]
Ki [1]: 1 to 10 µM
% of protein reduction based on densitometry values, SALL4 (24 H) (SALL4): ≤25% (≤25% for 0-25% of SALL4 protein reduction)
% of protein reduction based on densitometry values, CK1α (24 H) (CK1α): ≤25% (≤25% for 0-25% of CK1a protein reduction)
% of protein reduction based on densitometry values, IKZF 1 (24 H) (IKZF1): ≤25% (≤25% for 0-25% of IKZF1 protein reduction)

O=C1CCC(NC(=O)c2cc(F)cc3[nH]cnc23)C(=O)N1 (stereo not shown) [Compound 8, N-(2,6-dioxopiperidin-3-yl)-6-fluoro-1H-benzo[d]imidazole-4-carboxamide]
Ki [1]: 1 to 10 µM
% of protein reduction based on densitometry values, SALL4 (24 H) (SALL4): ≤25% (≤25% for 0-25% of SALL4 protein reduction)
% of protein reduction based on densitometry values, CK1α (24 H) (CK1α): ≤25% (≤25% for 0-25% of CK1a protein reduction)
% of protein reduction based on densitometry values, IKZF 1 (24 H) (IKZF1): ≤25% (≤25% for 0-25% of IKZF1 protein reduction)

Cc1nc2c(C(=O)NC3CCCC(=O)NC3=O)cccc2[nH]1 (stereo not shown) [Compound 20, N-(2,7-dioxoazepan-3-yl)-2-methyl-1H-benzo[d]imidazole-4-carboxamide]
% of protein reduction based on densitometry values, SALL4 (24 H) (SALL4): ≤25% (≤25% for 0-25% of SALL4 protein reduction)
% of protein reduction based on densitometry values, CK1α (24 H) (CK1α): ≤25% (≤25% for 0-25% of CK1a protein reduction)
% of protein reduction based on densitometry values, IKZF 1 (24 H) (IKZF1): ≤25% (≤25% for 0-25% of IKZF1 protein reduction)

O=C1CCC(NC(=O)c2cccc3[nH]c(C(F)F)nc23)C(=O)N1 (stereo not shown) [Compound 23, 2-(difluoromethyl)-N-(2,6-dioxopiperidin-3-yl)-1H-benzo[d]imidazole-7-carboxamide]
Ki [1]: 1 to 10 µM
% of protein reduction based on densitometry values, SALL4 (24 H) (SALL4): ≤25% (≤25% for 0-25% of SALL4 protein reduction)
% of protein reduction based on densitometry values, CK1α (24 H) (CK1α): ≤25% (≤25% for 0-25% of CK1a protein reduction)
% of protein reduction based on densitometry values, IKZF 1 (24 H) (IKZF1): ≤25% (≤25% for 0-25% of IKZF1 protein reduction)

O=C1CCC(NC(=O)c2cccc3[nH]nnc23)C(=O)N1 (stereo not shown) [Compound 55, N-(2,6-dioxopiperidin-3-yl)-1H-benzo[d][1,2,3]triazole-4-carboxamide]
Ki [1]: 1 to 10 µM
% of IKZF3 protein reduction based on densitometry values, IKZF3 Band I (IKZF3; 10 μM, 24 h): ≤25% (≤25% for 0-25% of IKZF3 protein reduction)
% of IKZF3 protein reduction based on densitometry values, IKZF3 Band II (IKZF3; 10 μM, 24 h): ≤25% (≤25% for 0-25% of IKZF3 protein reduction)
% of IKZF3 protein reduction based on densitometry values, IKZF3 Band I (IKZF3; 20 μM, 24 h): ≤25% (≤25% for 0-25% of IKZF3 protein reduction)
% of IKZF3 protein reduction based on densitometry values, IKZF3 Band II (IKZF3; 20 μM, 24 h): ≤25% (≤25% for 0-25% of IKZF3 protein reduction)

Cc1sc2c(c1C)C(c1ccc(Cl)cc1)=N[C@@H](CC(=O)Nc1ccc(OCCOCCOCCNC(=O)CCc3nc4c(C(=O)NC5CCC(=O)NC5=O)cccc4[nH]3)cc1)c1nnc(C)n1-2 (stereo partly drawn) [Compound 63, 2-(3-((2-(2-(2-(4-(2-((S)-4-(4-chlorophenyl)-2,3,9-trimethyl-6H-thieno[3,2-f][1,2,4]triazolo[4,3-a][1,4]diazepin-6-yl)acetamido)phenoxy)ethoxy)ethoxy)ethyl)amino)-3-oxopropyl)-N-(2,6-dioxopiperidin-3-yl)-1H-benzo[d]imidazole-7-carboxamide]
Ki [1]: 1 to 10 µM

Cc1nc2c(C(=O)NC3CCC(=O)NC3=O)c(OCC(=O)NCCCCCCCCNC(=O)C[C@@H]3N=C(c4ccc(Cl)cc4)c4c(sc(C)c4C)-n4c(C)nnc43)ccc2[nH]1 (stereo partly drawn) [Compound 67, 6-(2-((8-(2-((S)-4-(4-chlorophenyl)-2,3,9-trimethyl-6H-thieno[3,2-f][1,2,4]triazolo[4,3-a][1,4]diazepin-6-yl)acetamido)octyl)amino)-2-oxoethoxy)-N-(2,6-dioxopiperidin-3-yl)-2-methyl-1H-benzo[d]imidazole-7-carboxamide]
Ki [1]: 1 to 10 µM

Nc1cccc2c1C(=O)N(C1CCC(=O)NC1=O)C2=O (stereo not shown) [Pomalidomide, reference compound]
% of SALL4 protein reduction, based on densitometry values (SALL4; 10 μM): ≥75% (≥75% for 75-100% of SALL4 protein reduction)
% of SALL4 protein reduction, based on densitometry values (SALL4; 20 μM): ≥75% (≥75% for 75-100% of SALL4 protein reduction)
% of protein reduction based on densitometry values, SALL4 (24 H) (SALL4): ≥75% (≥75% for 75-100% of SALL4 protein reduction)
% of CK1α protein reduction, based on densitometry values (CK1α; 10 μM): >25% (>25% for 26-74% of CK1a protein reduction)
% of CK1α protein reduction, based on densitometry values (CK1α; 20 μM): >25% (>25% for 26-74% of CK1a protein reduction)
% of protein reduction based on densitometry values, CK1α (24 H) (CK1α): >25% (>25% for 26-74% of CK1a protein reduction)
% of IKZF1 α protein reduction based on densitometry values (IKZF1; 10 μM, 24 h): ≥75% (≥75% for 75-100% of IKZF1 protein reduction)
% of IKZF1 α protein reduction based on densitometry values (IKZF1; 20 μM, 24 h): ≥75% (≥75% for 75-100% of IKZF1 protein reduction)
% of protein reduction based on densitometry values, IKZF 1 (24 H) (IKZF1): ≥75% (≥75% for 75-100% of IKZF1 protein reduction)
% of IKZF3 protein reduction based on densitometry values, IKZF3 Band I (IKZF3; 10 μM, 24 h): ≥75% (≥75% for 75-100% of IKZF3 protein reduction)
% of IKZF3 protein reduction based on densitometry values, IKZF3 Band II (IKZF3; 10 μM, 24 h): ≥75% (≥75% for 75-100% of IKZF3 protein reduction)
% of IKZF3 protein reduction based on densitometry values, IKZF3 Band I (IKZF3; 20 μM, 24 h): ≥75% (≥75% for 75-100% of IKZF3 protein reduction)
% of IKZF3 protein reduction based on densitometry values, IKZF3 Band II (IKZF3; 20 μM, 24 h): ≥75% (≥75% for 75-100% of IKZF3 protein reduction)
% of protein reduction based on densitometry values, IKZF3 (24 H) (IKZF3; summary Table 10, 24 H, 10 and 20 μM): ≥75% (≥75% for 75-100% of IKZF3 protein reduction)
